Results published in publication PMC7461020 (The EMBO Journal, 2020).
Entries after “also recorded” stand apart in the source; their conditions may differ.

Tests used:
SARS-CoV-2 [1] = type: cell-based
SARS-CoV-2 [2] = type: cell-based; remark: listed apart in the source

## CCN(CCO)CCCC(C)Nc1ccnc2cc(Cl)ccc12 (centres unmarked) [Hydroxychloroquine, reference compound]
SARS-CoV-2 [1]
  Rescue of CPE: ~ 90%
SARS-CoV-2 [2]
  Reduction of viral titre: 10 fold

## CCC(CC)COC(=O)[C@H](C)N[P@](=O)(OC[C@H]1O[C@@](C#N)(c2ccc3c(N)ncnn23)[C@H](O)[C@@H]1O)Oc1ccccc1 [Remdesivir, reference compound]
SARS-CoV-2 [1]
  Reversal of SARS-CoV-2 induced CPE: ~ 90%

## CC(c1cccc2ccccc12)N1CCC(C(=O)NCc2cccc(F)c2)CC1 (stereo not drawn) [rac3k]
SARS-CoV-2 [1]
  CPE reduction at lower concentrations: diminished
  Effect on SARS-CoV-2-induced CPE: significantly rescued infected cells; also recorded: reduced SARS‐CoV‐2‐induced CPE
  Remaining cell death: around 20%
Vero cells
  Toxicity on Vero cells: no toxicity
Vero cells; African green monkey
  Cellular toxicity: ~25%
